From ChEMBL document CHEMBL3639306, “1H-imidazo[4,5-c]quinolines” (2014)

Biological target: T1, 3-phosphoinositide-dependent protein kinase 1 (Homo sapiens, UniProt O15530)
T1 sequence (O15530 whole entry): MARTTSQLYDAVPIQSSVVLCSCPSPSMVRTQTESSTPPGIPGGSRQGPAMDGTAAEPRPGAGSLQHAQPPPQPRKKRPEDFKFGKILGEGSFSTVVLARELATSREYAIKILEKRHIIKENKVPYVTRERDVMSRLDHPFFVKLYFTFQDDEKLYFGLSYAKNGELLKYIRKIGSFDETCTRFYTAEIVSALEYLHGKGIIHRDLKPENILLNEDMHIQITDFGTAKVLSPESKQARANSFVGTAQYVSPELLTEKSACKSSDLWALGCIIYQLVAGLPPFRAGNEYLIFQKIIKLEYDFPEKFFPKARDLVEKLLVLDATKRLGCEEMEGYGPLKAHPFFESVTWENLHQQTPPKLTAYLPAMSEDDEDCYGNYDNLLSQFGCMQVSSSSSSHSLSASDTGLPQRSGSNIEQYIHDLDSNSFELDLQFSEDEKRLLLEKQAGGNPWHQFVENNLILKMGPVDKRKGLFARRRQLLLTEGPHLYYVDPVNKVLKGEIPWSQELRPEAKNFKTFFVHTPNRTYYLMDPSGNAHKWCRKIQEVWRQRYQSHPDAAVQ
Test: Kinase Assay: Recombinant human PDK1 enzyme (aa 52-556) linked at its N-terminal end to His6 is isolated from baculovirus-infected insect cells. Purified enzyme may be obtained for example from the University of Dundee, Scotland. The following components are combined in a well of a 96-well round-based dish (Greiner bio-one, No. 650101): 1. 15 uL of compound to be tested in varying concentrations (e.g. starting at 10 uM, and diluted in steps of 1:5) in APT buffer (50 mM Tris/Cl pH7.5; 0.05% beta -mercaptoethanol; 10 mM Mg-acetate; 0.0166% Tween 20; 3.33% DMSO) 2. 15 uL His6-PDK1 (aa 52-556) 3.33 ng/well) and PDKtide (KTFCGTPEYLAPEVRRE […]), synthesised by Pepceuticals Limited, Nottingham, United Kingdom; 25 uM final concentration); His6-PDK1 and PDKtide are together diluted accordingly in assay buffer (50 mM tris pH 7.5, 0.05% beta -mercaptoethanol, 10 mM Mg-acetate); PDKtide is present in this mixture as an 83.3 uM solution.

Row | SMILES | IC50 [nM]
1 | Cc1nc2cnc3ccc(C#CCNC(=O)c4cc(Cl)nn(Cc5ccc(F)c(F)c5)c4=O)cc3c2n1[C@H]1CCCN(C)C1 | 111
2 | Cn1c(CCO)nc2cnc3ccc(C#CCNC(=O)c4cncn(Cc5ccc(F)c(F)c5)c4=O)cc3c21 | 14
3 | O=C(NCC#Cc1ccc2ncc3nc[nH]c3c2c1)c1cccn(Cc2ccc(F)c(F)c2)c1=O | 4
